# Data: paper PMC4756352, “Atypical natural killer T-cell receptor recognition of CD1d–lipid antigens” (Nature Communications, 2016)
# What was measured:
# [1] = molecular target: T1, human CD1d (Homo sapiens, UniProt P15813); assay: SPR, lipid-loaded CD1d immobilised, TCR injected; conditions: lipid loaded at 3-6 fold molar excess overnight; binding seen through TCR recognition; HBS-T pH 7.4, 25 °C
# T1 construct: soluble CD1d with C-terminal BirA biotin ligase tag and B2M, baculovirus/High Five insect cells, IMAC and gel filtration; biotinylated; with Beta-2-microglobulin
# [2] = molecular target: T1, human CD1d; assay: lipid-loaded CD1d tetramer staining of TCR-transduced Jurkat cells; assay type: cell-based; conditions: binding seen through TCR recognition (9B1, 9B2 lines)
# T1 sequence (P15813 20-295 limits assumed): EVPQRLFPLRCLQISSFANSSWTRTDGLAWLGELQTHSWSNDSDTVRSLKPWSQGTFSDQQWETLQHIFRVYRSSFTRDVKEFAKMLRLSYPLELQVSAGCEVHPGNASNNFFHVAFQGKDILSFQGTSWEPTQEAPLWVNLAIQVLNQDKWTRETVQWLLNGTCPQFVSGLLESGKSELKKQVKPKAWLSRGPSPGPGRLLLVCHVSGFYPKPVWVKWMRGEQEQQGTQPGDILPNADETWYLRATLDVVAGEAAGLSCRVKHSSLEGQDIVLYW
# T1 sequence (P61769 21-119 partner): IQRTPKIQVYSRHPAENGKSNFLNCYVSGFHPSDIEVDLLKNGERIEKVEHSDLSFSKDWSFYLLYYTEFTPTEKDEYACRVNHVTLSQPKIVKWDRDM
Structure (SMILES),"SPR, lipid-loaded CD1d immobilised, TCR injected [1]",lipid-loaded CD1d tetramer staining of TCR-transduced Jurkat cells [2]
CCCCCCCCCCCCCCCCCCCCCCCCCC(=O)N[C@@H](CO[C@H]1O[C@H](CO)[C@@H](O)[C@H](O)[C@H]1O)[C@H](O)[C@H](O)CCCCCCCCCCCCCC [α-GlcCer (C26:0)],yet was well-tolerated by NKT15 TCR,–
CCCCCCCCCCCCCCCCCCCCCCCCCC(=O)N[C@@H](CO[C@H]1O[C@H](CO)C[C@H](O)[C@H]1O)[C@H](O)CCCCCCCCCCCCCCC,no negative impact of this analogue on NKT15 or 9B2 TCR binding,–
CCCCCCCC/C=C\CCCCCCCCCCCCCC(=O)N[C@@H](CO[C@@H]1O[C@H](CO)[C@@H](O)[C@H](O)[C@H]1O)[C@H](O)/C=C/CCCCCCCCCCCCC [β-GlcCer (C24:1)],–,we detected clear reactivity of Jurkat.9B1 and Jurkat.9B2 cell lines to β-GlcCer
CCCCCCCCCCCCCCCCCCCCCCCCCC(=O)N[C@@H](CO[C@H]1O[C@H](CO)[C@H](O)C[C@H]1O)[C@H](O)CCCCCCCCCCCCCCC [3′-deoxy-α-GalCer],affinity of the 9C1 and 9B2 TCRs towards CD1d-3′-deoxy-α-GalCer,–
CCCCCCCCCCCCC/C=C/[C@@H](O)[C@H](CO[C@@H]1O[C@H](CO)[C@H](O)[C@H](O)[C@H]1O)NC(=O)CCCCCCCCCCC [β-GalCer (C12)],–,These 9B1 and 9B2 TCRs also reacted to a lesser extent with β-GalCer
